Measured values: ChEMBL document CHEMBL1201862, “PubChem BioAssay data set” (2004)
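96-well plates; 48 h exposure; 5 concentrations. Endpoints by linear interpolation between flanking doses. Not reached: highest tested concentration assigned. Here, GI50 denotes the concentration required for 50% inhibition of growth.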 Activity calls are given as the source filed them. No stated cut-off is given here; in the data, active = GI50 up to about 1.1 µM and inactive = higher.

Legend:
Assay in all cases: DTP human tumour cell line panel, 48 h
LOX IMVI = system: LOX IMVI
KM12 = system: KM12
SF-268 = system: SF-268
SK-MEL-28 = system: SK-MEL-28
TK-10 = system: TK-10
NCI-H460 = system: NCI-H460
PC-3 = system: PC-3
NCI-H226 = system: NCI-H226
SF-539 = system: SF-539
RXF 393 = system: RXF 393
MOLT-4 = system: MOLT-4
SW-620 = system: SW-620
SNB-19 = system: SNB-19
HCC 2998 = system: HCC 2998
Hs-578T = system: Hs-578T
NCI/ADR-RES = system: NCI/ADR-RES
CAKI-1 = system: CAKI-1
OVCAR-8 = system: OVCAR-8
T47D = system: T47D
SR = system: SR

Measured: GI50

COc1ccc(CC2C(=O)NC(C)C(=O)N(C)C3C(=O)N(C)C(Cc4ccc(O)c(c4)Oc4ccc(cc4)C3O)C(=O)NC(C)C(=O)NC(C)C(=O)N2C)cc1 (centres undefined)
active: LOX IMVI 0.00225 µM | KM12 0.00215 µM | SF-268 0.0125 µM | SK-MEL-28 0.00223 µM | TK-10 0.336 µM | NCI-H460 0.0167 µM | PC-3 0.01 µM | NCI-H226 0.00459 µM | SF-539 0.0136 µM | RXF 393 0.0396 µM | MOLT-4 0.0162 µM | SW-620 0.0181 µM | SNB-19 0.00392 µM | HCC 2998 0.0391 µM | Hs-578T 0.01 µM | NCI/ADR-RES 0.212 µM | CAKI-1 0.0512 µM | OVCAR-8 0.021 µM | T47D < 0.01 µM | SR < 0.01 µM

COc1cc(Nc2nc3c(N)cc(C(F)(F)F)cc3nc2-c2ccccc2)cc(OC)c1OC
inactive: LOX IMVI 72.1 µM | KM12 72.8 µM | SF-268 33.4 µM | SK-MEL-28 57 µM | TK-10 29.2 µM | NCI-H460 37.2 µM | PC-3 37.2 µM | NCI-H226 61.1 µM | SF-539 28.1 µM | RXF 393 1.98 µM | MOLT-4 > 100 µM | SW-620 > 90.4 µM | SNB-19 25.8 µM | HCC 2998 > 100 µM | Hs-578T 22.3 µM | NCI/ADR-RES > 53.2 µM | CAKI-1 45.4 µM | OVCAR-8 24.5 µM | T47D 14.1 µM | SR > 87.5 µM

C=CCOC1=C(OC(C)=O)C(=O)OC1C1COC(C)(C)O1 (centres undefined)
inactive: LOX IMVI 18.1 µM | KM12 34.2 µM | SF-268 48.4 µM | SK-MEL-28 17.3 µM | TK-10 67 µM | NCI-H460 > 62.5 µM | PC-3 > 57.3 µM | NCI-H226 61.1 µM | SF-539 37.1 µM | RXF 393 26.3 µM | MOLT-4 18.4 µM | SW-620 25.6 µM | SNB-19 > 74.3 µM | HCC 2998 36.4 µM | Hs-578T 32.4 µM | NCI/ADR-RES > 61.5 µM | CAKI-1 37.7 µM | OVCAR-8 28.6 µM | T47D 23.4 µM | SR 5.58 µM

CC(NC1=CC(=O)c2cccnc2C1=O)C(O)c1ccccc1 (centres undefined)
inactive: KM12 3.97 µM | SF-268 2.36 µM | SK-MEL-28 1.62 µM | TK-10 14.8 µM | PC-3 1.65 µM | NCI-H226 1.96 µM | SF-539 1.84 µM | RXF 393 2.71 µM | MOLT-4 4.12 µM | SW-620 1.66 µM | SNB-19 2.08 µM | HCC 2998 3.1 µM | Hs-578T 2.53 µM | NCI/ADR-RES 3.63 µM | CAKI-1 1.32 µM | OVCAR-8 2.92 µM | T47D 2.87 µM | SR 2.86 µM
active: LOX IMVI 0.942 µM | NCI-H460 0.733 µM

O=C(O)CN1CCNCCN(CC(=O)O)CC1
inactive: LOX IMVI 17.3 µM | KM12 16.8 µM | SF-268 89.1 µM | SK-MEL-28 33.8 µM | TK-10 8.2 µM | NCI-H460 7.66 µM | PC-3 18.1 µM | NCI-H226 9.93 µM | SF-539 13 µM | RXF 393 13.6 µM | MOLT-4 4.81 µM | SW-620 3.4 µM | SNB-19 > 100 µM | HCC 2998 10.6 µM | Hs-578T > 66.1 µM | NCI/ADR-RES 2.44 µM | CAKI-1 > 100 µM | OVCAR-8 2.63 µM | T47D > 100 µM | SR 3.84 µM

[N-]=[N+]=Nc1c(N2CCOCC2)c(Cl)nc2ccccc12
inactive: LOX IMVI 46.6 µM | KM12 27 µM | SF-268 37.5 µM | SK-MEL-28 59.8 µM | TK-10 61.2 µM | NCI-H460 28.8 µM | PC-3 34.2 µM | NCI-H226 30.3 µM | SF-539 65.5 µM | RXF 393 64.6 µM | MOLT-4 65.2 µM | SW-620 72.3 µM | SNB-19 > 100 µM | HCC 2998 92.7 µM | Hs-578T 44.8 µM | NCI/ADR-RES 26.4 µM | CAKI-1 60.5 µM | OVCAR-8 35.2 µM | T47D 65.6 µM | SR 92.3 µM

Clc1ccc(C2=Cc3nc2c(-c2ccccc2)c2ccc([nH]2)c(-c2ccccc2)c2nc(c(-c4ccccc4)c4ccc([nH]4)c3-c3ccccc3)C=C2)cc1
inactive: LOX IMVI > 62.5 µM | KM12 > 62.5 µM | SF-268 > 62.5 µM | SK-MEL-28 > 62.5 µM | TK-10 > 62.5 µM | NCI-H460 > 62.5 µM | PC-3 > 62.5 µM | NCI-H226 > 62.5 µM | SF-539 > 62.5 µM | RXF 393 > 62.5 µM | MOLT-4 > 62.5 µM | SW-620 > 62.5 µM | SNB-19 46 µM | HCC 2998 > 62.5 µM | Hs-578T > 62.5 µM | NCI/ADR-RES > 62.5 µM | CAKI-1 13.9 µM | OVCAR-8 > 62.5 µM | T47D > 62.5 µM | SR > 62.5 µM

CCCCCCCCCCCCCCCCCCNc1ccn(C2OC(COP(=O)(O)OCC3OC(n4cc(C)c(=O)[nH]c4=O)CC3F)C(O)C2O)c(=O)n1 (centres undefined)
inactive: LOX IMVI 7.59 µM | KM12 5.22 µM | SF-268 8.59 µM | SK-MEL-28 8.87 µM | TK-10 3.08 µM | NCI-H460 7.41 µM | PC-3 1.61 µM | NCI-H226 37.8 µM | SF-539 9.46 µM | RXF 393 1.67 µM | MOLT-4 3.13 µM | SW-620 5.86 µM | SNB-19 6.5 µM | HCC 2998 5.7 µM | Hs-578T 11.1 µM | NCI/ADR-RES 30.9 µM | CAKI-1 8.73 µM | OVCAR-8 8.51 µM | T47D 7.38 µM | SR 1.44 µM

CC(=O)/N=C1/N(/C=C2\C(=O)Oc3ccccc3C2=O)C(=O)/C(=C/c2ccccc2Cl)N1C
inactive: LOX IMVI > 100 µM | KM12 > 100 µM | SF-268 73.8 µM | SK-MEL-28 > 100 µM | NCI-H460 > 100 µM | PC-3 > 100 µM | NCI-H226 > 100 µM | SF-539 > 100 µM | RXF 393 > 100 µM | MOLT-4 > 100 µM | SW-620 > 100 µM | SNB-19 95.3 µM | HCC 2998 > 100 µM | Hs-578T 4.29 µM | NCI/ADR-RES 84.9 µM | CAKI-1 > 100 µM | OVCAR-8 > 100 µM | T47D > 100 µM | SR 69.3 µM

C1CCC(CC2CCC(NC3=NCCO3)CC2)CC1 (centres undefined)
inactive: LOX IMVI 16.1 µM | KM12 18.3 µM | SF-268 26 µM | SK-MEL-28 18.1 µM | TK-10 15.3 µM | NCI-H460 20.2 µM | PC-3 15.8 µM | NCI-H226 18.8 µM | SF-539 16.8 µM | RXF 393 18.3 µM | MOLT-4 21.6 µM | SW-620 21.3 µM | SNB-19 17.3 µM | HCC 2998 20.7 µM | Hs-578T 16.3 µM | NCI/ADR-RES 19.4 µM | CAKI-1 24.5 µM | OVCAR-8 17.1 µM | T47D 24.4 µM | SR 24.4 µM
